Data reported in ChEMBL document CHEMBL3046607, “Synthesis and Herbicidal Activity of New 1-Alkyl-3-aryloxypyrazole-4-carboxamide Derivatives” (J Pestic Sci, 2004).
Activity calls are given as the source filed them. No cut-off for these calls is given here.

Legend:
[1] = tested on: Rotala indica; assay: Pre-emergence herbicidal activity against Rotala indica assessed as bleaching of stem/leaf parts; type: functional, organism-based
[2] = tested on: Schoenoplectiella juncoides; assay: Pre-emergence herbicidal activity against Schoenoplectiella juncoides at 33 g a.i/ha measured after 14 days; type: functional, organism-based
[3] = tested on: Oryza sativa; assay: Phytotoxicity against Oryza sativa cv. Koshihikari (rice) at 10 g a.i/ha measured after 14 days; type: organism-based; conditions: in vivo, 336 h
[4] = tested on: Pontederia vaginalis; assay: Pre-emergence herbicidal activity against Monochoria vaginalis at 1 0 g a.i/ha measured after 14 days; type: functional, organism-based
[5] = tested on: Ammannia multiflora; assay: Post-emergence herbicidal activity against Ammannia multiflora assessed as bleaching of stem/leaf parts; type: functional, organism-based
[6] = tested on: Rotala indica; assay: Pre-emergence herbicidal activity against Rotala indica at 10 g a.i/ha measured after 14 days; type: functional, organism-based
[7] = tested on: Echinochloa oryzicola; assay: Pre-emergence herbicidal activity against Echinochloa oryzicola at 33 g a.i/ha measured after 14 days; type: functional, organism-based
[8] = tested on: Cyperus difformis; assay: Pre-emergence herbicidal activity against Cyperus difformis at 33 g a.i/ha measured after 14 days; type: functional, organism-based
[9] = tested on: Pontederia vaginalis; assay: Post-emergence herbicidal activity against Monochoria vaginalis assessed as bleaching of stem/leaf parts; type: functional, organism-based
[10] = tested on: Oryza sativa; assay: Phytotoxicity against Oryza sativa cv. Koshihikari (rice) at 33 g a.i/ha measured after 14 days; type: organism-based; conditions: in vivo, 336 h
[11] = tested on: Lindernia procumbens; assay: Pre-emergence herbicidal activity against Lindernia procumbens at 33 g a.i/ha measured after 14 days; type: functional, organism-based
[12] = tested on: Lindernia procumbens; assay: Post-emergence herbicidal activity against Lindernia procumbens assessed as bleaching of stem/leaf parts; type: functional, organism-based; note: test concentration or dose not given here
[13] = tested on: Rotala indica; assay: Post-emergence herbicidal activity against Rotala indica assessed as bleaching of stem/leaf parts; type: functional, organism-based
[14] = tested on: Rotala indica; assay: Pre-emergence herbicidal activity against Rotala indica at 33 g a.i/ha measured after 14 days; type: functional, organism-based
[15] = tested on: Pontederia vaginalis; assay: Pre-emergence herbicidal activity against Monochoria vaginalis assessed as bleaching of stem/leaf parts; type: functional, organism-based
[16] = tested on: Cyperus difformis; assay: Pre-emergence herbicidal activity against Cyperus difformis at 10 g a.i/ha measured after 14 days; type: functional, organism-based
[17] = tested on: Cyperus difformis; assay: Pre-emergence herbicidal activity against Cyperus difformis assessed as bleaching of stem/leaf parts; type: functional, organism-based
[18] = tested on: Elatine triandra; assay: Pre-emergence herbicidal activity against Elatine triandra at 33 g a.i/ha measured after 14 days; type: functional, organism-based
[19] = tested on: Echinochloa oryzicola; assay: Pre-emergence herbicidal activity against Echinochloa oryzicola assessed as bleaching of stem/leaf parts; type: functional, organism-based
[20] = tested on: Schoenoplectiella juncoides; assay: Pre-emergence herbicidal activity against Schoenoplectiella juncoides assessed as bleaching of stem/leaf parts; type: functional, organism-based
[21] = tested on: Schoenoplectiella juncoides; assay: Post-emergence herbicidal activity against Schoenoplectiella juncoides assessed as bleaching of stem/leaf parts; type: functional, organism-based; note: test concentration or dose not given here
[22] = tested on: Elatine triandra; assay: Pre-emergence herbicidal activity against Elatine triandra assessed as bleaching of stem/leaf parts; type: functional, organism-based
[23] = tested on: Schoenoplectiella juncoides; assay: Pre-emergence herbicidal activity against Schoenoplectiella juncoides at 10 g a.i/ha measured after 14 days; type: functional, organism-based
[24] = tested on: Ammannia multiflora; assay: Pre-emergence herbicidal activity against Ammannia multiflora assessed as bleaching of stem/leaf parts; type: functional, organism-based
[25] = tested on: Cyperus difformis; assay: Post-emergence herbicidal activity against Cyperus difformis assessed as bleaching of stem/leaf parts; type: functional, organism-based; note: test concentration or dose not given here
[26] = tested on: Elatine triandra; assay: Pre-emergence herbicidal activity against Elatine triandra at 10 g a.i/ha measured after 14 days; type: functional, organism-based
[27] = tested on: Echinochloa oryzicola; assay: Post-emergence herbicidal activity against Echinochloa oryzicola assessed as bleaching of stem/leaf parts; type: functional, organism-based
[28] = tested on: Lindernia procumbens; assay: Pre-emergence herbicidal activity against Lindernia procumbens at 10 g a.i/ha measured after 14 days; type: functional, organism-based
[29] = tested on: Lindernia procumbens; assay: Pre-emergence herbicidal activity against Lindernia procumbens assessed as bleaching of stem/leaf parts; type: functional, organism-based
[30] = tested on: Pontederia vaginalis; assay: Pre-emergence herbicidal activity against Monochoria vaginalis at 33 g a.i/ha measured after 14 days; type: functional, organism-based
[31] = tested on: Echinochloa oryzicola; assay: Pre-emergence herbicidal activity against Echinochloa oryzicola at 10 g a.i/ha measured after 14 days; type: functional, organism-based
[32] = tested on: Ammannia multiflora; assay: Pre-emergence herbicidal activity against Ammannia multiflora at 10 g a.i/ha measured after 14 days; type: functional, organism-based
[33] = tested on: Ammannia multiflora; assay: Pre-emergence herbicidal activity against Ammannia multiflora at 33 g a.i/ha measured after 14 days; type: functional, organism-based
[34] = tested on: Elatine triandra; assay: Post-emergence herbicidal activity against Elatine triandra assessed as bleaching of stem/leaf parts; type: functional, organism-based; note: test concentration or dose not given here

## CCn1cc(C(=O)Nc2ccc(F)cc2F)c(Oc2cccc(C(F)(F)F)c2)n1
[1]
  Activity: Active
[2]
  Activity: Active
[3]
  Activity: Non-toxic
[4]
  Activity: Active
[5]
  Activity: Active
[6]
  Activity: Active
[7]
  Activity: Active
[8]
  Activity: Active
[9]
  Activity: Active
[10]
  Activity: Non-toxic
[11]
  Activity: Active
[12]
  Activity: Active
[13]
  Activity: Active
[14]
  Activity: Active
[15]
  Activity: Active
[16]
  Activity: Active
[17]
  Activity: Active
[18]
  Activity: Active
[19]
  Activity: Active
[20]
  Activity: Active
[21]
  Activity: Active
[22]
  Activity: Active
[23]
  Activity: inactive
[24]
  Activity: Active
[25]
  Activity: Active
[26]
  Activity: Active
[27]
  Activity: Active
[28]
  Activity: Active
[29]
  Activity: Active
[30]
  Activity: Active
[31]
  Activity: Active
[32]
  Activity: Active
[33]
  Activity: Active
[34]
  Activity: Active
